The text below walks through data of patent publication US20230310421A1, “MOLECULES FOR USE IN THE TREATMENT OF VIRAL INFECTIONS” (priority 2020, published 2023).

For assay [1], the system named is MHV-A59. The assay can be described thus: Direct (intrinsic) antiviral activity: survival, titer and syncitia formation in L929, BMDMs and LA4 cells. It counts as cell-based, Murine Hepatitis Virus.
Assay [2] deals with L929 cells. The assay can be described thus: Macrophage extrinsic cytotoxic activity (ECT): supernatant of MHV-infected BMDM on L929 cells, CellTiter-Glo / live imaging. To be noted: L929 cells exposed to supernatant from MOI 0.1-infected BMDM.

`N[C@H]1CC[C@H](N[C@@H]2C[C@H]2c2ccccc2)CC1` [Ory1001]: in assay [1] (drug applied directly on infected L929 cells), the intrinsic antiviral activity entry is recorded as “elicited intrinsic antiviral activity”.

In the case of JAK inhibitor I, the “effect on DDP rescue of cell viability of infected L929 cells” value in assay [1] is listed as “No effect”. Also, in assay [2], the “effect on ECT (viability in uninfected cells)” value is given as “no effect”.
